15 compounds from patent US20250034159A1, “INHIBITORS OF EPIDERMAL GROWTH FACTOR RECEPTOR” (ORIC Pharmaceuticals, Inc., priority 2021, published 2025) can be followed below.

One assay deals with BaF3_EGFR LR/CS cells. Kind of assay: Biological Activity Assay D: BaF3 cell proliferation assay, EGFR L858R/C797S mutant (BaF3 LR/CS). Type of assay: cell-based. As to conditions: Ba/F3 EGFR, read-out: BaF3 LR/CS IC50. The procedure:
(§1) One frozen vial of cells should be thawed into one T25 flask in 10 mL media. Keep the flask upright in the incubator.
(§2) Method: One frozen vial of cells was thawed into one T25 flask in 10 mL media and the flask was kept upright in the incubator. Cells were split 1:10 every two to three days when cells reached confluency of around 1×10^6 cells/mL. Bravo protocol files were used with Greiner 384-well plates for all steps of compound preparation, cell plating and compound addition. […] 16 μL of DMSO were added (for compounds starting at 20 μM) or 28 μL DMSO (for compounds starting at 5 μM) to 96-well V-bottom polypropylene plate: wells 1A-1H (8 compounds/plate). […] 20 μL DMSO were added to the remainder of the wells (columns 2-12) in the 96-well V-bottom plate. A Bravo liquid handler was used to make 1:3 serial dilutions from columns 1 to 11 (12 remains as DMSO only) to prepare the DMSO dilution plate. 144 μL media were added to each well of a new 96-well V-bottom polypropylene plate to prepare the intermediate dilution plate. A Bravo or 96-head Integra liquid handler was used to add and mix 6 μL of test compound from the DMSO dilution plate to the intermediate dilution plate. (1:25 dilution). Cells were transferred from a flask into a 50 mL conical, vortex gently and the number of cells were counted, with a target cell number of about 1×10^6 cells per mL. The cells were diluted in culture medium in 50 mL conical or T25 flask, and the cell suspension was added to BRAVO reservoir and then use Bravo protocol to plate the appropriate number of cells shown below in 36 μl of medium per well as follows: Ba/F3-WT-EGFR 2000 cells per well of a 384 well plate; Ba/F3-LR/CS-EGFR 2000 cells per well of a 384 well plate; and Ba/F3-d19/CS-EGFR 1500 cells per well of a 384 well plate. An extra 10 mL of dead volume was utilized in each reservoir.
(§3) Using a Bravo liquid handler, 4 μl of test compound solution was added per well from the intermediate dilution plate to plated cells (1:10 dilution from the intermediate plate, final compound dilution 1:250 and final DMSO concentration per well is 0.4%). Using the 96 BRAVO Head, 25 μl were aspirated from the intermediate dilution plate and 4 μl each were dispensed into 4 wells (square pattern) in the 384-well plate. Any remaining test compound is dispensed into a secondary plate to prevent cross contamination of cells in the intermediate compound plate. After the compounds were added, the plate was shaken at 600 rpm gently for 60 see, and the plates were incubated in a tissue culture incubator, 37° C., 5% CO2, for ˜ 72 hours. After incubation, CTG 2.0 reagent was allowed to equilibrate to room temperature (˜3 hours) and cells to reach room temperature (˜10-15 minutes) and reagent was added to cells (40 μL/well) using a Bravo liquid handler. The plates were shaken to allow proper mixing (˜5 min) and let settle for 10 minutes and were read on Tecan plate reader using the appropriate luminescence method. Data from plate reader was transferred to an excel file and entered directly into Dotmatics using the protocols under EGFR Project/Cell Proliferation/named: “BaF3_EGFRwt_CP”, “BaF3_EGFR_d19/CS_CP”, “BaF3_EGFR_LR/CS_CP”. Curves were fit with a 4-parameter model and IC50s calculated by the Dotmatics software. DMSO wells were averaged to define the high control (100% growth). The average of the highest concentration of the positive control compound (afatinib) was used to define the 0% growth and used to lock the bottom of the curves. The tops of the curves were not fixed.

Assay [1] concerns the target recombinant human EGFR exon 19 deletion/C797S double mutant protein (Homo sapiens (Human), UniProt P00533, C797S/DEL746-750). Kind of assay: Biological Activity Assay C: biochemical assay against EGFR exon 19 deletion/C797S protein (EGFR d19/CS). Here is the method: In Row A of a 384-well polypropylene plate, was added 48 μL of DMSO. In wells A1 and A24, were added 12 μL of DMSO. […] To a well in Row A were added 12 μL of each 10 mM test compound stock (100% DMSO). […] The final intermediate dilution plate contained 4×16-point compound serial dilutions in assay buffer. The DMSO concentration was 10%. The intermediate compound dilution plate was transferred to the Bravo and the “5 uL dispense into ARP.pro” protocol was run. To the black low volume assay ready plates, were added 5 μL of 40 uM Phosphosens peptide sensor/4 mM ATP working solution to each well. […] To column 24, was added 10 μL of assay buffer. The final DMSO concentration was 2.5%. […] The plates were sealed with the TopSeal-A Plus plate seals. […] Set for 90 cycles with 120 second interval. […] The slope of each curve was constructed using Dotmatics in each well, and each IC50s was calculated using a 4-parameter fit model.

In the next assay the test system is Ba/F3_EGFR WT cells. Kind of assay: Biological Activity Assay D: BaF3 cell proliferation assay, EGFR wild-type (BaF3 WT). Type of assay: cell-based. Particulars: Ba/F3 EGFR, read-out: BaF3 WT IC50. The procedure: as §1, §2, §3
For a further assay, the system named is BaF3_EGFR d19/CS cells. Kind of assay: Biological Activity Assay D: BaF3 cell proliferation assay, EGFR exon 19 deletion/C797S (BaF3 d19/CS). Type of assay: cell-based. Particulars: Ba/F3 EGFR, read-out: BaF3 d19/CS IC50. Here is the method: as §1, §2, §3
[2] abbreviates: BaF3_EGFR LR/CS cells, ~72 hours, CellTiter-Glo.
[3] abbreviates: Ba/F3_EGFR WT cells, ~72 hours, CellTiter-Glo.
The mark [4] stands for this setting: BaF3_EGFR d19/CS cells, ~72 hours, CellTiter-Glo.

Read-outs that look alike come from different tables or passages of the source.

recombinant human EGFR exon 19 deletion/C797S double mutant protein, sequence (P00533 other isoform, or with tags, fused parts or gaps C797S/del 1-668/del 746-750 limits assumed): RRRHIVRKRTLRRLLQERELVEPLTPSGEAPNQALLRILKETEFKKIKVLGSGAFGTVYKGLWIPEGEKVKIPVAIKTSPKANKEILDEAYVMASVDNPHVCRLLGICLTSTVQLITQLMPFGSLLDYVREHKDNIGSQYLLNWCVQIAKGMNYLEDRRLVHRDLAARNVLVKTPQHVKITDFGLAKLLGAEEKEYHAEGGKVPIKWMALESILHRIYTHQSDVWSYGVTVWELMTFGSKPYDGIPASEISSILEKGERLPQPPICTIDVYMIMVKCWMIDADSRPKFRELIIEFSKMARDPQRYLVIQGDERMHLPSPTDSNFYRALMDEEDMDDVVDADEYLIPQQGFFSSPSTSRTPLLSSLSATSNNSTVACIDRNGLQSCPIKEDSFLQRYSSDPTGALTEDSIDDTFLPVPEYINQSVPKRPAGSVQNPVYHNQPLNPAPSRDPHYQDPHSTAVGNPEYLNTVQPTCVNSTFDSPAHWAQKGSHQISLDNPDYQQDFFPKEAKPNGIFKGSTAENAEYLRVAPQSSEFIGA

`C[C@@H]1C[C@@H](n2cc(-c3ncnc4oc(-c5ccccc5)cc34)c(-c3ccc(F)cc3)n2)CN1S(C)(=O)=O` [Example 189, 4-{3-(4-fluorophenyl)-1-[(3R,5R)-1-(methanesulfonyl)-5-methylpyrrolidin-3-yl]-1H-pyrazol-4-yl}-6-phenylfuro[2,3-d]pyrimidine]: the IC50 in the assay on BaF3_EGFR LR/CS cells (setting [2]) was determined as 5.51 nM; in assay [1] it was 0.26 nM; in the assay on Ba/F3_EGFR WT cells (setting [3]) it was 132 nM; with BaF3_EGFR d19/CS cells (setting [4]), 5.86 nM.
In the case of `CC1(C)C[C@H](n2cc(-c3ncnc4oc(-c5ccccc5)cc34)c(-c3ccc(F)cc3)n2)CO1` (single isomer, unassigned) [Example 238], the IC50 with BaF3_EGFR LR/CS cells (setting [2]) stood at 31 nM; in assay [1], 0.62 nM; with Ba/F3_EGFR WT cells (setting [3]), 2070 nM; in the assay with BaF3_EGFR d19/CS cells (setting [4]), 52.1 nM.
As for `Cc1c(-c2cc3c(-c4cn(CC(C)(C)O)nc4-c4ccc(F)cc4)ncnc3o2)ncn1C` [Example 272, 1-{4-[6-(1,5-dimethyl-1H-imidazol-4-yl)furo[2,3-d]pyrimidin-4-yl]-3-(4-fluorophenyl)-1H-pyrazol-1-yl}-2-methylpropan-2-ol], the IC50 in the assay with BaF3_EGFR LR/CS cells (72 h) was found to be 13.5 nM; in assay [1], 0.486 nM; in the assay on Ba/F3_EGFR WT cells (72 h), 668 nM; with BaF3_EGFR d19/CS cells (72 h), 15.7 nM.
Turning to `COc1ccc(-c2cc3c(-c4cn(CC(C)(C)O)nc4-c4ccc(F)cc4)ncnc3o2)nc1` [Example 276, 1-{3-(4-fluorophenyl)-4-[6-(5-methoxypyridin-2-yl)furo[2,3-d]pyrimidin-4-yl]-1H-pyrazol-1-yl}-2-methylpropan-2-ol], the IC50 in the assay with BaF3_EGFR LR/CS cells (setting [2]) came to 19 nM; in assay [1] it was 0.07 nM; in the assay on Ba/F3_EGFR WT cells (setting [3]), 677 nM; in the assay on BaF3_EGFR d19/CS cells (setting [4]), 13.5 nM.
For `O=S1(=O)CC(n2cc(-c3ncnc4oc(C5=CNCCC5)cc34)c(-c3ccc(F)cc3)n2)C1` [Example 154, 3-{3-(4-fluorophenyl)-4-[6-(1,4,5,6-tetrahydropyridin-3-yl)furo[2,3-d]pyrimidin-4-yl]-1H-pyrazol-1-yl}-1λ6-thietane-1,1-dione] the same measures were 630 nM, 0.75 nM, 16300 nM and 440 nM.
`CC(=O)N1CC[C@H](n2cc(-c3ncnc4oc(-c5ccccc5)cc34)c(-c3ccc(F)cc3)n2)C1` (single isomer, unassigned) [Example 129]: the IC50 is 66.6 nM with BaF3_EGFR LR/CS cells (setting [2]), 0.2 nM in assay [1], 1610 nM with Ba/F3_EGFR WT cells (setting [3]) and 107 nM in the assay with BaF3_EGFR d19/CS cells (setting [4]).
In the same order, the values of `CS(=O)(=O)N1CC=C(c2cc3c(-c4cn(C5CS(=O)(=O)C5)nc4-c4ccc(F)cc4)ncnc3o2)CC1` [Example 181, 3-[3-(4-fluorophenyl)-4-{6-[1-(methanesulfonyl)-1,2,3,6-tetrahydropyridin-4-yl]furo[2,3-d]pyrimidin-4-yl}-1H-pyrazol-1-yl]-1λ6-thietane-1,1-dione] are 79.3 nM, 0.27 nM, 2110 nM and 97 nM.
Consider `Fc1ccc(-c2nn([C@H]3C[C@H]4CC[C@@H](C3)O4)cc2-c2ncnc3oc(-c4ccccc4)cc23)cc1` [Example 172, 4-{3-(4-fluorophenyl)-1-[(1R,3r,5S)-8-oxabicyclo[3.2.1]octan-3-yl]-1H-pyrazol-4-yl}-6-phenylfuro[2,3-d]pyrimidine], for which the IC50 in the assay with BaF3_EGFR LR/CS cells (setting [2]) is 33.1 nM; in assay [1] it was 1.44 nM; in the assay with Ba/F3_EGFR WT cells (setting [3]), 7050 nM; in the assay on BaF3_EGFR d19/CS cells (setting [4]), 199 nM.
For `CN1CC[C@@H](n2cc(-c3ncnc4oc(-c5ccccc5)cc34)c(-c3ccc(F)cc3)n2)C1=O` (single isomer, unassigned) [Example 166], the IC50 is 19.6 nM in the assay with BaF3_EGFR LR/CS cells (setting [2]), 0.29 nM in assay [1], 1350 nM in the assay with Ba/F3_EGFR WT cells (setting [3]) and 53.8 nM with BaF3_EGFR d19/CS cells (setting [4]).
In the case of `O=S1(=O)CC(n2cc(-c3ncnc4oc(-c5cnccn5)cc34)c(-c3ccc(F)cc3)n2)C1` [Example 188, 3-{3-(4-fluorophenyl)-4-[6-(pyrazin-2-yl)furo[2,3-d]pyrimidin-4-yl]-1H-pyrazol-1-yl}-1λ6-thietane-1,1-dione], the IC50 with BaF3_EGFR LR/CS cells (setting [2]) stood at 489 nM; in assay [1], 2.23 nM; in the assay on Ba/F3_EGFR WT cells (setting [3]), 11700 nM; with BaF3_EGFR d19/CS cells (setting [4]), 246 nM.
Turning to `O=S1(=O)CC(n2cc(-c3ncnc4oc(-c5cccc(C6CC6)c5)cc34)c(-c3ccc(F)cc3)n2)C1` [Example 178, 3-{4-[6-(3-cyclopropylphenyl)furo[2,3-d]pyrimidin-4-yl]-3-(4-fluorophenyl)-1H-pyrazol-1-yl}-16-thietane-1,1-dione], the IC50 with BaF3_EGFR LR/CS cells (setting [2]) was 89.7 nM; in assay [1], 2.27 nM; with Ba/F3_EGFR WT cells (setting [3]), 5200 nM; with BaF3_EGFR d19/CS cells (setting [4]) it was 187 nM.
As to `CC(C)(O)Cn1cc(-c2ncnc3oc(-c4ccccn4)cc23)c(-c2ccc(F)cc2)n1` [Example 257, 1-{3-(4-fluorophenyl)-4-[6-(pyridin-2-yl)furo[2,3-d]pyrimidin-4-yl]-1H-pyrazol-1-yl}-2-methylpropan-2-ol], the IC50 came to 18.2 nM in the assay with BaF3_EGFR LR/CS cells (setting [2]), 0.2 nM in assay [1], 1010 nM in the assay on Ba/F3_EGFR WT cells (setting [3]) and 20.8 nM with BaF3_EGFR d19/CS cells (setting [4]).
With `Cc1nn(C)c(C(F)F)c1-c1cc2c(-c3cn(CC(C)(C)O)nc3-c3ccc(F)cc3)ncnc2o1` [Example 280, 1-[4-{6-[5-(difluoromethyl)-1,3-dimethyl-1H-pyrazol-4-yl]furo[2,3-d]pyrimidin-4-yl}-3-(4-fluorophenyl)-1H-pyrazol-1-yl]-2-methylpropan-2-ol], the IC50 in the assay with BaF3_EGFR LR/CS cells (setting [2]) is 38.2 nM; in assay [1], 0.288 nM; with Ba/F3_EGFR WT cells (setting [3]), 857 nM; in the assay with BaF3_EGFR d19/CS cells (setting [4]), 31.7 nM.
As to `Cc1nc(-c2cc3c(-c4cn(CC(C)(C)O)nc4-c4ccc(F)cc4)ncnc3o2)ccc1F` [Example 282, 1-{4-[6-(5-fluoro-6-methylpyridin-2-yl)furo[2,3-d]pyrimidin-4-yl]-3-(4-fluorophenyl)-1H-pyrazol-1-yl}-2-methylpropan-2-ol], the IC50 with BaF3_EGFR LR/CS cells (setting [2]) stood at 62.9 nM; in assay [1], 0.307 nM; with Ba/F3_EGFR WT cells (setting [3]), 1980 nM; with BaF3_EGFR d19/CS cells (setting [4]), 40.7 nM.
Turning to `Fc1ccc(-c2nn([C@@H]3CCOC[C@H]3F)cc2-c2ncnc3oc(-c4ccccc4)cc23)cc1` (single isomer, unassigned) [Example 153], the IC50 is 22.3 nM with BaF3_EGFR LR/CS cells (setting [2]), 1.04 nM in assay [1], 1800 nM in the assay with Ba/F3_EGFR WT cells (setting [3]) and 60.4 nM in the assay on BaF3_EGFR d19/CS cells (setting [4]).
